Laboratory results taken from article PMC6145453 (ACS infectious diseases, 2018).
“Also recorded” adds a separate entry of the source.

Assays:
[1] = test system: A/Brisbane/59/2007-R (oseltamivir resistant); test: microbe, parasite or virus in culture; format: cell-based; settings: Influenza A virus, H1N1, A549, 24 h
rWSN-NP/Y40F virus = format: cell-based, influenza A virus
influenza A/WSN/33 virus = format: cell-based
[2] = biological target: NP (rY40F WSN virus infected A549 cells) (Influenza A virus, UniProt P15682, G34D/P283S/Y40F); format: cell-based

## CC(C)(C)c1ccc(C(=O)Nc2ccc(NC(=O)c3ccc(C(C)(C)C)cc3)cc2)cc1 [S119, N,N′-(1,4-Phenylene)bis(4-(tert-butyl)benzamide)]
[1]
  IC50: > 50 µM
rWSN-NP/Y40F virus
  resistance phenotype of Y40F mutant virus: resistant phenotype
Influenza A/WSN/33 virus
  maximum virus inhibition while maintaining enough virus production for passages: 3 logs
[2]
  effect on NP oligomerization: unaffected

## CC(C)(C)c1ccc(C(=O)Nc2ccc(Nc3ccccc3)cc2)cc1 [S119-8, 4-(tert-butyl)-N-(4-(phenylamino)-phenyl)benzamide]
[1]
  IC50: 3.85 µM
rWSN-NP/Y40F virus
  resistance phenotype of Y40F mutant virus: maintained resistance; also recorded: retains the same Y40F resistant phenotype

## Cc1onc(-c2ccccc2)c1C(=O)N1CCN(c2ccc([N+](=O)[O-])cc2Cl)CC1 [nucleozin, reference compound]
rWSN-NP/Y40F virus
  resistance phenotype of Y40F mutant virus: minor resistance phenotype
[2]
  effect on NP oligomerization: altered
